{"source": "patent US20250034168A1", "about": "“NITROGEN-CONTAINING HETEROCYCLIC DERIVATIVE PARP INHIBITOR AND USE THEREOF” (XIZANG HAISCO PHARMACEUTICAL CO., LTD., priority 2021, published 2025)", "key": {"MDA-MB-436 cells": {"test_system": "MDA-MB-436 cells", "assay": "MDA-MB-436 cell activity test", "format": "cell-based", "details": "Homo sapiens", "protocol": "Breast tumor cells MDA-MB-436 were purchased from ATCC, the culture medium was Leibovitz's L-15+10% FBS, and the cells were cultured in a CO2-free incubator at 37° C. On day 1, the cells in the exponential growth phase were collected, and the cell suspension was adjusted to 4000 cells/135 μL with the culture medium. 135 μL of the cell suspension was added to each well of a 96-well cell culture plate and incubated overnight. On day 2, compounds at different concentrations were added, and the plate was placed in the incubator and incubated for 7 days. After the incubation was completed, according to operation instructions for a CellTiter-Glo kit (Promega, G7573), 75 μL of CTG solution, which was already pre-melted and equilibrated to room temperature, was added to each well, and the mixture was uniformly mixed for 2 min using a microplate shaker. The plate was placed at room temperature for 10 min, and then […] were measured using an Envision2104 plate reader (PerkinElmer). The inhibition rate was calculated using formula (1), where RLUcompound was the readout of the drug treated group, RLUcontrol was the average value of the vehicle control group, and RLUblank was the average value of the cell-free well. The IC50 value was calculated using GraphPad Prism software."}, "[1]": {"assay": "Pharmacokinetic test in mice", "format": "in vivo, ICR mice", "protocol": "• 5.2.1 Experimental animals: male ICR mice, 20-25 g, 18 mice/compound. purchased from Chengdu Ddossy Experimental Animals Co., Ltd. • 5.2.2 Experimental design: on the day of the test, 18 ICR mice were randomly grouped according to their body weights. the animals were fasted with water available for 12 to 14 h one day before the administration, and were fed 4 h after the administration.\nBefore and after the administration, 0.06 mL of blood was taken from the orbit of the animals under isoflurane anesthesia and placed in an EDTAK2 centrifuge tube. The blood was centrifuged at 5000 rpm and 4° C. for 10 min to collect plasma. The blood collection time points for the intravenous group and intragastric administration group were: 0 min, 5 min, 15 min, 30 min, 1 h, 2 h, 4 h, 6 h, 8 h, and 24 h. Before analysis and detection, all samples were stored at −80° C., and a quantitative analysis of samples was performed using LC-MS/MS."}, "MDA-MB-231 cells": {"test_system": "MDA-MB-231 cells", "assay": "MDA-MB-231 cell proliferation inhibition test", "format": "cell-based", "details": "Homo sapiens", "protocol": "Human breast cancer MDA-MB-231 cells purchased from ATCC were placed in complete DMEM medium (supplemented with 10% fetal bovine serum and 1% double antibody) and cultured at 37° C. and 5% CO2. The cells in the exponential growth phase were collected, and the cell suspension was adjusted to 1500 cells/135 μL with the culture medium. 135 μL of the cell suspension was added to each well of a 96-well cell culture plate and incubated overnight. On day 2, compounds at different concentrations were added, and the plate was placed in the incubator and incubated for 7 days. After the incubation was completed, according to operation instructions for a CellTiter-Glo kit (Promega, Cat #G7573), 75 μL of CTG solution, which was already pre-melted and equilibrated to room temperature, was added to each well, and the mixture was uniformly mixed for 2 min using a microplate shaker. The plate was placed at room temperature for 10 min, and then […] signal values were measured using an Envision 2104 plate reader (PerkinElmer). The cell proliferation inhibition rate was calculated according to the formula [(1−(RLUcompound−RLUblank)/(RLUcontrol−RLUblank))×100%]. The IC50 value was obtained by four-parameter nonlinear fitting using GraphPad Prism software."}, "PARP7": {"target": "PARP7 (Homo sapiens (Human), UniProt Q7Z3E1)", "sequence (Q7Z3E1 whole entry)": "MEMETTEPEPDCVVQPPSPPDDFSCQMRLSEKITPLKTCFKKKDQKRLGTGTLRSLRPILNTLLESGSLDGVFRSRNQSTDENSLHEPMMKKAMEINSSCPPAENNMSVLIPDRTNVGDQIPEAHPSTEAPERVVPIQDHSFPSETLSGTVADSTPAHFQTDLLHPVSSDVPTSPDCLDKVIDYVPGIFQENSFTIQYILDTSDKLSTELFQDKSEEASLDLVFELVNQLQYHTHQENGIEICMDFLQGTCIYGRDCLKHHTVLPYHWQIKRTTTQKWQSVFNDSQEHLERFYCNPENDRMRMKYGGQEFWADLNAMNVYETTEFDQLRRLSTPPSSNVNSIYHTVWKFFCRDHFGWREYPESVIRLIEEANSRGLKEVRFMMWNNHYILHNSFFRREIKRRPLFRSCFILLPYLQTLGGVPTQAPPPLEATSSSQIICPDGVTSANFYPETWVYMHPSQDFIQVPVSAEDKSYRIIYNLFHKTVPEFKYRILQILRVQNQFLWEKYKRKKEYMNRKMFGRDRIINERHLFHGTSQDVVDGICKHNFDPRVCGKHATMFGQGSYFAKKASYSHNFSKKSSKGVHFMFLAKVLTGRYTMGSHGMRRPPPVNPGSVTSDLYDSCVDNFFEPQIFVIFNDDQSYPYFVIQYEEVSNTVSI", "assay": "PARP7 enzyme activity test", "format": "biochemical", "protocol": "PARP2 and PARP7 chemical […] detection kits were both purchased from BPS Bioscience. The histone solution in the kit was diluted 5× with 1×PBS, and 25 μL of the diluted histone solution was added to a microwell plate and incubated overnight at 4° C. After the incubation, the plate was washed three times with PBST (0.05% Tween-20). 100 μL of the blocking solution was added to the microwell plate and incubated at 25° C. for 90 minutes. After the incubation, the plate was washed three times with PBST. 2.5 μL of compound 4 diluted in test buffer and 5 μL of substrate mixed solution were added to the microwell plate. 5 μL of the diluted PARP enzyme was added to the microwell plate, and the reaction system was incubated at 25° C. for 60 minutes.\nAfter the incubation, the plate was washed three times with PBST. Streptavidin-HRP was diluted 50× with a blocking solution, and 25 μL of the diluent was added to the microwell plate and incubated at 25° C. for 30 minutes. After the incubation, the plate was washed three times with PBST. ELISA ECL substrate A and substrate B were mixed at a ratio of 1:1 (v/v), 25 μL of the mixture was added to the microwell plate, and the chemiluminescence value was read. […]"}, "[2]": {"details": "male, ICR, iv, mouse plasma, i.v. 2.5 mg/kg"}}, "data": [{"smiles": "CCc1cc2ncc(CN3CC=C(c4ccc(C(=O)NC)nc4)CC3)cc2[nH]c1=O", "note": "[Compound 14, 1′-((7-ethyl-6-oxo-5,6-dihydro-1,5-naphthyridin-3-yl)methyl)-N-methyl-1′,2′,3′,6′-tetrahydro-[3,4′-bipyridine]-6-carboxamide]", "values": [{"measurement": "IC50", "setting": "MDA-MB-436 cells; MDA-MB-436, 168 h, 7 days incubation, CellTiter-Glo", "result": 3.2, "unit": "nM"}, {"measurement": "inhibition at 10 µM", "setting": "MDA-MB-436 cells; MDA-MB-436 cells, 10 μM, read-out: Max inh. % 10 μM", "result": 89.1, "unit": "%"}, {"measurement": "AUC(0-t)", "setting": "[1]; [2]", "result": 220, "unit": "µg·h/mL"}, {"measurement": "clearance", "setting": "[1]; [2]", "result": 0.164, "unit": "mL/min/kg"}, {"measurement": "Vd", "setting": "[1]; male, ICR, iv, mouse plasma, i.v. 2.5 mg/kg, read-out: Vdss", "result": 0.112, "unit": "L/kg"}, {"measurement": "AUC(0-t)", "setting": "[1]; male, ICR, po, mouse plasma, i.g. 10 mg/kg", "result": 829, "unit": "µg·h/mL"}, {"measurement": "F", "setting": "[1]; mouse, i.g. 10 mg/kg", "result": 94.3, "unit": "%"}, {"measurement": "IC50", "setting": "MDA-MB-231 cells; MDA-MB-231, 168 h, BRCA WT cells, 7 days incubation, CellTiter-Glo, read-out: MDA-MB-231 cell inhibitory activity IC50", "result": 21800, "unit": "nM"}, {"measurement": "inhibition at 10 µM", "setting": "MDA-MB-231 cells; MDA-MB-231 cells, 10 μM, read-out: Max inh. % 10 μM", "result": 59.2, "unit": "%"}, {"measurement": "IC50", "setting": "PARP7", "result": 40, "unit": "nM"}]}]}
